From patent publication EP4722212A1, “NOVEL COMPOUND FOR INHIBITING PROTEIN KINASES AND PHARMACEUTICAL COMPOSITION COMPRISING SAME” (Magicbullettherapeutics Co., Ltd., priority 2023, dated 2024)
Read-outs that look alike come from different tables or passages of the source.

Legend:
Test in all cases: Kinase panel
Format in all cases: biochemical
MASTL = MASTL (Homo sapiens, UniProt Q96GX5); conditions: read-out: residual enzyme activity
Procedure, shortened: (§1)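 Values report residual kinase activity remaining after treatment with 1 µM compound in a biochemical panel assay. Enzymes retaining 40% or less of their activity, equivalent to at least 60% inhibition, were listed.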

PLK4/SAK = PLK4/SAK (Homo sapiens, UniProt O00444); conditions: read-out: residual enzyme activity
Procedure, shortened: as §1

DMPK2 = DMPK2 (Homo sapiens, UniProt Q6DT37); conditions: DMPK2, 1 µM; read-out: residual enzyme activity
Procedure, shortened: as §1

PBK/TOPK = PBK/TOPK (Homo sapiens, UniProt Q96KB5); conditions: read-out: residual enzyme activity
Procedure, shortened: as §1

AKT3 = AKT3 (Homo sapiens, UniProt Q9Y243); conditions: AKT3, 1 µM; read-out: residual enzyme activity
Procedure, shortened: as §1

TLK1 = TLK1 (Homo sapiens, UniProt Q9UKI8); conditions: TLK1, 1 µM; read-out: residual enzyme activity
Procedure, shortened: as §1

CAMK1B = CAMK1B (Homo sapiens, UniProt Q6P2M8); conditions: read-out: residual enzyme activity
Procedure, shortened: as §1

P38D/MAPK13 = P38D/MAPK13 (Homo sapiens, UniProt O15264); conditions: read-out: residual enzyme activity
Procedure, shortened: as §1

BRK = BRK (Homo sapiens, UniProt Q13882); conditions: read-out: residual enzyme activity
Procedure, shortened: as §1

BRSK1 = BRSK1 (Homo sapiens, UniProt Q8TDC3); conditions: BRSK1, 1 µM; read-out: residual enzyme activity
Procedure, shortened: as §1

FRK/PTKS = FRK/PTKS (Homo sapiens, UniProt P42685); conditions: read-out: residual enzyme activity
Procedure, shortened: as §1

MYO3A = MYO3A (Homo sapiens, UniProt Q8NEV4); conditions: read-out: residual enzyme activity
Procedure, shortened: as §1

CAMK1A = CAMK1A (Homo sapiens, UniProt Q14012); conditions: read-out: residual enzyme activity
Procedure, shortened: as §1

ACK1 = target: T1, ACK1 (Homo sapiens, UniProt Q07912); conditions: ACK1, 1 µM; read-out: residual enzyme activity
T1 construct: purchased Reaction Biology (RBC)
Procedure, shortened: as §1

VRK1 = VRK1 (Homo sapiens, UniProt Q99986); conditions: VRK1, 1 µM; read-out: residual enzyme activity
Procedure, shortened: as §1

PIM1 = PIM1 (Homo sapiens, UniProt P11309); conditions: PIM1, 1 µM; read-out: residual enzyme activity
Procedure, shortened: as §1

GRK4 = GRK4 (Homo sapiens, UniProt P32298); conditions: GRK4, 1 µM; read-out: residual enzyme activity
Procedure, shortened: as §1

MEK1 = MEK1 (Homo sapiens, UniProt Q02750); conditions: MEK1, 1 µM; read-out: residual enzyme activity
Procedure, shortened: as §1

LCK2/ICK = LCK2/ICK (Homo sapiens, UniProt Q9UPZ9); conditions: read-out: residual enzyme activity
Procedure, shortened: as §1

TXK = TXK (Homo sapiens, UniProt P42681); conditions: read-out: residual enzyme activity
Procedure, shortened: as §1

EGFR = EGFR (Homo sapiens, UniProt P00533); conditions: read-out: residual enzyme activity
Procedure, shortened: as §1

CAMK4 = CAMK4 (Homo sapiens, UniProt Q16566); conditions: CAMK4, 1 µM; read-out: residual enzyme activity
Procedure, shortened: as §1

EPHAS = EPHAS (Homo sapiens, UniProt P29322); conditions: read-out: residual enzyme activity
Procedure, shortened: as §1

MEK5 = MEK5 (Homo sapiens, UniProt Q13163); conditions: MEK5, 1 µM; read-out: residual enzyme activity
Procedure, shortened: as §1

CK2A2 = CK2A2 (Homo sapiens, UniProt P19784); conditions: read-out: residual enzyme activity
Procedure, shortened: as §1

PKACG = PKACG (Homo sapiens, UniProt P22612); conditions: read-out: residual enzyme activity
Procedure, shortened: as §1

DAPK2 = DAPK2 (Homo sapiens, UniProt Q9UIK4); conditions: DAPK2, 1 µM; read-out: residual enzyme activity
Procedure, shortened: as §1

GRK1 = GRK1 (Homo sapiens, UniProt Q15835); conditions: GRK1, 1 µM; read-out: residual enzyme activity
Procedure, shortened: as §1

TIE2/TEK = TIE2/TEK (Homo sapiens, UniProt Q02763); conditions: read-out: residual enzyme activity
Procedure, shortened: as §1

LCK = LCK (Homo sapiens, UniProt P06239); conditions: read-out: residual enzyme activity
Procedure, shortened: as §1

EPHA6 = EPHA6 (Homo sapiens, UniProt Q9UF33); conditions: EPHA6, 1 µM; read-out: residual enzyme activity
Procedure, shortened: as §1

EPHA7 = EPHA7 (Homo sapiens, UniProt Q15375); conditions: EPHA7, 1 µM; read-out: residual enzyme activity
Procedure, shortened: as §1

PKCZETA = PKCZETA (Homo sapiens, UniProt Q05513); conditions: read-out: residual enzyme activity
Procedure, shortened: as §1

CAMKIG = CAMKIG (Homo sapiens, UniProt Q96NX5); conditions: read-out: residual enzyme activity
Procedure, shortened: as §1

CK1D = CK1D (Homo sapiens, UniProt P48730); conditions: read-out: residual enzyme activity
Procedure, shortened: as §1

TXK, sequence (P42681 whole entry, species assumed): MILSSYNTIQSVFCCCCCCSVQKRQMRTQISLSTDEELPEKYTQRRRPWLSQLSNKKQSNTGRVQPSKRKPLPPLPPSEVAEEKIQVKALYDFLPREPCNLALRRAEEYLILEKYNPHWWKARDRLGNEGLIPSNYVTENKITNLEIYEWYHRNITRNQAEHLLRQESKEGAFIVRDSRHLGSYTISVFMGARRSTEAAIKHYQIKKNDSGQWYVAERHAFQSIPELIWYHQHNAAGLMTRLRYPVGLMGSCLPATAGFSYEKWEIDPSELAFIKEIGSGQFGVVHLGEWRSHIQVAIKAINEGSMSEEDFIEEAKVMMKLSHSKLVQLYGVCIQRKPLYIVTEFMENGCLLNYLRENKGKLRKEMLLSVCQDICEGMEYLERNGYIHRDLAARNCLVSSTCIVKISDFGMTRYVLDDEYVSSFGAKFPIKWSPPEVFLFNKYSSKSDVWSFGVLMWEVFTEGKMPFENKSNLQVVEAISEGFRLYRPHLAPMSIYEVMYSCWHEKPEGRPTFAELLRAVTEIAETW
VRK1, sequence (Q99986 whole entry, species assumed): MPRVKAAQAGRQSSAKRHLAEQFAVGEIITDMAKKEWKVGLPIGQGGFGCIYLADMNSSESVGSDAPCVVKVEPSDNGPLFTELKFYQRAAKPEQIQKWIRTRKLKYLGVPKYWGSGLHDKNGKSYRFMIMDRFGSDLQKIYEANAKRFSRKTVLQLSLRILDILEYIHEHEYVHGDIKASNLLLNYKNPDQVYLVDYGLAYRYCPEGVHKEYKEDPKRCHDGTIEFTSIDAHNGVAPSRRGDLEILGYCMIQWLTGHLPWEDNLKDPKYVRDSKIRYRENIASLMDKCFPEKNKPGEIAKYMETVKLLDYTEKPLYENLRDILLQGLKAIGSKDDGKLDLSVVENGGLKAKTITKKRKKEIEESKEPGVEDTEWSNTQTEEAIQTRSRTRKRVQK
CAMK1A, sequence (Q14012 whole entry): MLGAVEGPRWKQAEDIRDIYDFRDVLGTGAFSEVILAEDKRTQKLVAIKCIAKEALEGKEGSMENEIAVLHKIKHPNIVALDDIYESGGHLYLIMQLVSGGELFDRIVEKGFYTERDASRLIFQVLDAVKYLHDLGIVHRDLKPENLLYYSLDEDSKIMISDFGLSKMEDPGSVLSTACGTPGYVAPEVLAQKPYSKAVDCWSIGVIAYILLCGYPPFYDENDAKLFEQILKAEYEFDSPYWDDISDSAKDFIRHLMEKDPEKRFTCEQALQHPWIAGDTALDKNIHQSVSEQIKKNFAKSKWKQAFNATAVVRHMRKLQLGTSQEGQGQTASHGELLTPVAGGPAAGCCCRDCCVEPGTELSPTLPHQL
T1 sequence (Q07912 whole entry): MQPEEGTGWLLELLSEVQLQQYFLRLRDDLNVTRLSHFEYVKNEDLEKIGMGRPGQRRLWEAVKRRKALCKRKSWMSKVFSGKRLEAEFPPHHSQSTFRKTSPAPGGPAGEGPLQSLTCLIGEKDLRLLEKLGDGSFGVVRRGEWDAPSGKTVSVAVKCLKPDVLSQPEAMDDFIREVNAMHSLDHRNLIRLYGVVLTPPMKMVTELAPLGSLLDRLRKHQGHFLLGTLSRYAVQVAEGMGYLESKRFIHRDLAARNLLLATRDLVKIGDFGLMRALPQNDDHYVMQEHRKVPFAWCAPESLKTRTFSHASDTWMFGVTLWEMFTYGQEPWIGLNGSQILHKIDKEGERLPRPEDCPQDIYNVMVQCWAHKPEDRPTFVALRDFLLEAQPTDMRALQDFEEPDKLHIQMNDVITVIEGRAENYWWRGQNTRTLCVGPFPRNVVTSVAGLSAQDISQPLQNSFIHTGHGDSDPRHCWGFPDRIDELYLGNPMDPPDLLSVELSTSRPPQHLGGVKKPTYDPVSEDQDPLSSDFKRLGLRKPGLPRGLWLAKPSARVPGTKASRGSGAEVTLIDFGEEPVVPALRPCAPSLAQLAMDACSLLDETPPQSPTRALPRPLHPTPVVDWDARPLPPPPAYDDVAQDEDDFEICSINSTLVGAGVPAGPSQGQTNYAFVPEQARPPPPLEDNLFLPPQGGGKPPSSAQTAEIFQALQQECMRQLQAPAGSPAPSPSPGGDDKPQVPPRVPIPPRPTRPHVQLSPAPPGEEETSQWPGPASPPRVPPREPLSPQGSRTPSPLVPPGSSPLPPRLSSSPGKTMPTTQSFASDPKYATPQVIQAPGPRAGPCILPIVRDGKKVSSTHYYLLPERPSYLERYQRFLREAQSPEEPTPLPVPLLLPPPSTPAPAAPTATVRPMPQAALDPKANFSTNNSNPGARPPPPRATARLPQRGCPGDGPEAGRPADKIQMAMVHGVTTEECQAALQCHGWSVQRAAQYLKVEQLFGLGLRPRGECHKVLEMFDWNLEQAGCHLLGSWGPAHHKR
PKCZETA, sequence (Q05513 whole entry): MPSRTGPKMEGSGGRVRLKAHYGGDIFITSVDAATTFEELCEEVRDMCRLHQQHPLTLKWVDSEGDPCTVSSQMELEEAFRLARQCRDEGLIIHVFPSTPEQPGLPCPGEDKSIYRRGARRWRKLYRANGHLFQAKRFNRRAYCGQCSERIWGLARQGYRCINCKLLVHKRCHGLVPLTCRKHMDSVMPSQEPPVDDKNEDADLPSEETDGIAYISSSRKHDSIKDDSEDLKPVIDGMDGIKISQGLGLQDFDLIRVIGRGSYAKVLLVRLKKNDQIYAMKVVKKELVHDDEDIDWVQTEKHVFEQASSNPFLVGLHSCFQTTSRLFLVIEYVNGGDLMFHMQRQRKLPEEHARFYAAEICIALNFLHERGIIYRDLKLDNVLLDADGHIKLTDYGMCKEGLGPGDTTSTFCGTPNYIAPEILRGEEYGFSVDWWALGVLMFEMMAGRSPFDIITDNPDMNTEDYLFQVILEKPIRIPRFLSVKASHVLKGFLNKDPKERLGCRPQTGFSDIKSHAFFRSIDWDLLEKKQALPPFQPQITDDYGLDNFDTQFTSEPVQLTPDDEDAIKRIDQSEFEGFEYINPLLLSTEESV
MASTL, sequence (Q96GX5 whole entry, species assumed): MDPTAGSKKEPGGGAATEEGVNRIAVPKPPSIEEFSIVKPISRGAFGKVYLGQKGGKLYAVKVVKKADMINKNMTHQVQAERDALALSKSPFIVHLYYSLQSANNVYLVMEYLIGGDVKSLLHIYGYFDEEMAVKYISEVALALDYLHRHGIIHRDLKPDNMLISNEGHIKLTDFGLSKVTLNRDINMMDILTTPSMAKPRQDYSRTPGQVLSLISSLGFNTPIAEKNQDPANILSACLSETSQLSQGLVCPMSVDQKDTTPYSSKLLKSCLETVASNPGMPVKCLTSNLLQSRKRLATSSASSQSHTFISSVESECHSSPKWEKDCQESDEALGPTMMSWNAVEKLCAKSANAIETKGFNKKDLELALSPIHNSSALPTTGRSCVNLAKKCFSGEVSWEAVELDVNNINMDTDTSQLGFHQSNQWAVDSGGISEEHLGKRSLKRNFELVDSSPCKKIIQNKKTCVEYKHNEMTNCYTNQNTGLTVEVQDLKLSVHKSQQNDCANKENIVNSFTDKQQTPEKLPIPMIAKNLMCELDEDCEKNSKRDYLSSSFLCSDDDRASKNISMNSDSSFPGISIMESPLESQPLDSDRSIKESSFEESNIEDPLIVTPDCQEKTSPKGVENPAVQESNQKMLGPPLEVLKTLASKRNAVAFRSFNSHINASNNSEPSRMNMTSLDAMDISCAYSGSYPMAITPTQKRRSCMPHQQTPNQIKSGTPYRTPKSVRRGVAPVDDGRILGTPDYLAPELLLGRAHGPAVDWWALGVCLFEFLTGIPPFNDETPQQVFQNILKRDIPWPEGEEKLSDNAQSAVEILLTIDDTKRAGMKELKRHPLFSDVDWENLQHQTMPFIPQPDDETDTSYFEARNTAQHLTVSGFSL
BRK, sequence (Q13882 whole entry, species assumed): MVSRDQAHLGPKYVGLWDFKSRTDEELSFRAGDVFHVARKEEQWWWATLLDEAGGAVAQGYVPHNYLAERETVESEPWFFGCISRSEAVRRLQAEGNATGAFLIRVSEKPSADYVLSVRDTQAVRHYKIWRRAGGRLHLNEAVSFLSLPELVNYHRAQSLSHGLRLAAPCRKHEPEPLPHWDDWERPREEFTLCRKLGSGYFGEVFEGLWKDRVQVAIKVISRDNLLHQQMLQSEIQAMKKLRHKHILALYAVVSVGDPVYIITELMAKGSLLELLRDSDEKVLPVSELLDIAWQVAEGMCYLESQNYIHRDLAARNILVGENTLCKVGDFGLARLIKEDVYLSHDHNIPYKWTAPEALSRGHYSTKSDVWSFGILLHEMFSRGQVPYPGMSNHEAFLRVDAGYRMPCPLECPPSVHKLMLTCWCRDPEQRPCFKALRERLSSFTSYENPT
FRK/PTKS, sequence (P42685 whole entry): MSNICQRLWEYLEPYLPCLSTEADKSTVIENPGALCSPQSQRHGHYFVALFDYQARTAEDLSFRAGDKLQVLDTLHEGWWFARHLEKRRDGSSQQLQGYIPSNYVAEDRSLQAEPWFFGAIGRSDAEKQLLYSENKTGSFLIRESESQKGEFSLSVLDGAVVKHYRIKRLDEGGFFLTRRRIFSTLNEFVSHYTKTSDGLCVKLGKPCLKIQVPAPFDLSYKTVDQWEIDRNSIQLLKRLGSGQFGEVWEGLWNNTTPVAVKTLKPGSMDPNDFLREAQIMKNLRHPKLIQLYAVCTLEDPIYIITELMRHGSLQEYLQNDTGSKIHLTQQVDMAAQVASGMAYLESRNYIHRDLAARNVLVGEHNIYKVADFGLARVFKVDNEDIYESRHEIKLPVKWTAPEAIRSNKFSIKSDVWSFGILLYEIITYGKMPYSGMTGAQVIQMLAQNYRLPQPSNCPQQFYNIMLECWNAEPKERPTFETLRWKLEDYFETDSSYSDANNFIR

Compound	remaining activity at 1 µM (MASTL) [%]	remaining activity at 1 µM (PLK4/SAK) [%]	remaining activity at 1 µM (DMPK2) [%]	remaining activity at 1 µM (PBK/TOPK) [%]	remaining activity at 1 µM (AKT3) [%]	remaining activity at 1 µM (TLK1) [%]	remaining activity at 1 µM (BRK) [%]	remaining activity at 1 µM (BRSK1) [%]	remaining activity at 1 µM (FRK/PTKS) [%]	remaining activity at 1 µM (MYO3A) [%]	remaining activity at 1 µM (ACK1) [%]	remaining activity at 1 µM (VRK1) [%]	remaining activity at 1 µM (PIM1) [%]	remaining activity at 1 µM (GRK4) [%]	remaining activity at 1 µM (MEK1) [%]	remaining activity at 1 µM (LCK2/ICK) [%]	remaining activity at 1 µM (TXK) [%]	remaining activity at 1 µM (EGFR) [%]	remaining activity at 1 µM (CAMK4) [%]	remaining activity at 1 µM (MEK5) [%]	further results
Cc1cn(-c2cc(C(=O)Nc3ccc(C)c(N4Cc5cnc(NC6CC6)nc5C5(CC5)C4=O)c3)cc(C(F)(F)F)c2)cn1 [Compound 8, N-(3-(2'-(cyclopropylamino)-7'-oxo-5'H-spiro[cyclopropane-1,8'-pyrido[4,3-d]pyrimidine]-6'(7'H)-yl)-4-methylphenyl)-3-(4-methyl-1H-imidazol-1-yl)-5-(trifluoromethyl)benzamide]	> 40	> 40	> 40	> 40	> 40	> 40	≤ 40	> 40	≤ 40	> 40	≤ 40	> 40	> 40	> 40	> 40	> 40	≤ 40	≤ 40	> 40	≤ 40	remaining activity at 1 µM (CAMK1B; CAMK1B): > 40%; remaining activity at 1 µM (P38D/MAPK13; P38D/MAPK13, 1 µM): > 40%; remaining activity at 1 µM (CAMK1A; CAMK1A): > 40%; remaining activity at 1 µM (EPHAS; EPHAS (row 110), 1 µM): ≤ 40%; remaining activity at 1 µM (CK2A2; CK2A2, 1 µM): > 40%; remaining activity at 1 µM (PKACG): ≤ 40%; remaining activity at 1 µM (DAPK2): > 40%; remaining activity at 1 µM (GRK1): > 40%; remaining activity at 1 µM (TIE2/TEK): ≤ 40%; remaining activity at 1 µM (LCK): ≤ 40%; remaining activity at 1 µM (EPHA6): ≤ 40%; remaining activity at 1 µM (EPHA7): ≤ 40%; remaining activity at 1 µM (PKCZETA): > 40%; remaining activity at 1 µM (CAMKIG; CAMKIG): > 40%; remaining activity at 1 µM (CK1D; CK1D): > 40%
Cc1ccc(Nc2ncc3c(n2)C2(CC2)C(=O)N(c2cc(NC(=O)c4cccc(C(F)(F)F)c4)ccc2C)C3)cn1 [Compound 51, N-(4-methyl-3-(2'-((6-methylpyridin-3-yl)amino)-7'-oxo-5'H-spiro[cyclopropane-1,8'-pyrido[4,3-d]pyrimidine]-6'(7'H)-yl)phenyl)-3-(trifluoromethyl)benzamide]	> 40	> 40	> 40	> 40	> 40	> 40	≤ 40	> 40	≤ 40	> 40	≤ 40	> 40	> 40	> 40	> 40	> 40	≤ 40	≤ 40	> 40	≤ 40	remaining activity at 1 µM (CAMK1B; CAMK1b): > 40%; remaining activity at 1 µM (P38D/MAPK13; P38d/MAPK13, 1 µM): > 40%; remaining activity at 1 µM (CAMK1A; CAMKla): > 40%; remaining activity at 1 µM (EPHAS; EPHA8, 1 µM): ≤ 40%; remaining activity at 1 µM (CK2A2; CK2a2, 1 µM): > 40%; remaining activity at 1 µM (PKACG): ≤ 40%; remaining activity at 1 µM (DAPK2): > 40%; remaining activity at 1 µM (GRK1): > 40%; remaining activity at 1 µM (TIE2/TEK): ≤ 40%; remaining activity at 1 µM (LCK): ≤ 40%; remaining activity at 1 µM (EPHA6): ≤ 40%; remaining activity at 1 µM (EPHA7): ≤ 40%; remaining activity at 1 µM (PKCZETA): > 40%; remaining activity at 1 µM (CAMKIG; CAMK1g): > 40%; remaining activity at 1 µM (CK1D; CKld): > 40%
